This note sets out measurements from ChEMBL document CHEMBL5696441 (Nat Chem Biol, 2011).

SMILES strings stand for the structures.

In experiment [1] the target is Serine/threonine-protein kinase 36 (Homo sapiens) (UniProt Q9NRP7). The experiment in a line: Inhibition of STK36 (unknown origin) assessed as remaining activity at 1 uM by Kinome scan method relative to control.
The target in experiment [2] is Hormonally up-regulated neu tumor-associated kinase (Homo sapiens) (UniProt P57058). The experiment in a line: Inhibition of HUNK (unknown origin) assessed as remaining activity at 1 uM by Kinome scan method relative to control.
Hormonally up-regulated neu tumor-associated kinase (Homo sapiens), sequence (P57058 whole entry): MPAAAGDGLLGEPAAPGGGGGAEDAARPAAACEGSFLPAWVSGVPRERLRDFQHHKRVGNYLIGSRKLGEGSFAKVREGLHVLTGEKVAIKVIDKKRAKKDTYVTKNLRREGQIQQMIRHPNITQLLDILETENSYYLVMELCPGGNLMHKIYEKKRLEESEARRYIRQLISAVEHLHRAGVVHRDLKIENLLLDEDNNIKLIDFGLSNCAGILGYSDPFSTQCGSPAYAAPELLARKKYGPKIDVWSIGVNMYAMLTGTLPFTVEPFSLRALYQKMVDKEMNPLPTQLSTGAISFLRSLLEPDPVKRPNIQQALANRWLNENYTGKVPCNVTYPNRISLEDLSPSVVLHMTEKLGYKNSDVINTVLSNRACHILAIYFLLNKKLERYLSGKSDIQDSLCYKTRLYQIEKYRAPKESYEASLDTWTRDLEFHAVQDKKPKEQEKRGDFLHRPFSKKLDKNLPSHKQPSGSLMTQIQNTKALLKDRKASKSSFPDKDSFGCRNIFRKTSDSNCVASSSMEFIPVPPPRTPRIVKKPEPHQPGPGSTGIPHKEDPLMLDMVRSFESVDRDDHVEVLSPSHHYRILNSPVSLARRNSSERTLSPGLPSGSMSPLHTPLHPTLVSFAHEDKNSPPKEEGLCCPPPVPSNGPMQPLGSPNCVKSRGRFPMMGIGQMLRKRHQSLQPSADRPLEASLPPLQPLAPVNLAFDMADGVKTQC
In experiment [3] the target is Dual specificity mitogen-activated protein kinase kinase 4 (Homo sapiens) (UniProt P45985). The experiment in a line: Inhibition of MEK4 (unknown origin) assessed as remaining activity at 1 uM by Kinome scan method relative to control.
For experiment [4], the target named is Serine/threonine-protein kinase 38 (Homo sapiens) (UniProt Q15208). The experiment is described as follows: Inhibition of NDR1 (unknown origin) assessed as remaining activity at 1 uM by Kinome scan method relative to control.
Experiment [5] deals with Phosphatidylinositol 4,5-bisphosphate 3-kinase catalytic subunit delta isoform (Homo sapiens) (UniProt O00329). The experiment is described as follows: Inhibition of PIK3CD (unknown origin) assessed as remaining activity at 1 uM by Kinome scan method relative to control.
Experiment [6] addresses Tyrosine-protein kinase ABL1 (Homo sapiens) (UniProt P00519). The experiment in a line: Inhibition of ABL1 (unknown origin) assessed as remaining activity at 1 uM by Kinome scan method relative to control.
Experiment [7] deals with Insulin receptor (Homo sapiens) (UniProt P06213). The experiment is described as follows: Inhibition of INSR (unknown origin) assessed as remaining activity at 1 uM by Kinome scan method relative to control.
Experiment [8] deals with LIM domain kinase 2 (Homo sapiens) (UniProt P53671). The experiment in a line: Inhibition of LIMK2 (unknown origin) assessed as remaining activity at 1 uM by Kinome scan method relative to control.
LIM domain kinase 2 (Homo sapiens), sequence (P53671 whole entry, looked up, the tested form may be a part): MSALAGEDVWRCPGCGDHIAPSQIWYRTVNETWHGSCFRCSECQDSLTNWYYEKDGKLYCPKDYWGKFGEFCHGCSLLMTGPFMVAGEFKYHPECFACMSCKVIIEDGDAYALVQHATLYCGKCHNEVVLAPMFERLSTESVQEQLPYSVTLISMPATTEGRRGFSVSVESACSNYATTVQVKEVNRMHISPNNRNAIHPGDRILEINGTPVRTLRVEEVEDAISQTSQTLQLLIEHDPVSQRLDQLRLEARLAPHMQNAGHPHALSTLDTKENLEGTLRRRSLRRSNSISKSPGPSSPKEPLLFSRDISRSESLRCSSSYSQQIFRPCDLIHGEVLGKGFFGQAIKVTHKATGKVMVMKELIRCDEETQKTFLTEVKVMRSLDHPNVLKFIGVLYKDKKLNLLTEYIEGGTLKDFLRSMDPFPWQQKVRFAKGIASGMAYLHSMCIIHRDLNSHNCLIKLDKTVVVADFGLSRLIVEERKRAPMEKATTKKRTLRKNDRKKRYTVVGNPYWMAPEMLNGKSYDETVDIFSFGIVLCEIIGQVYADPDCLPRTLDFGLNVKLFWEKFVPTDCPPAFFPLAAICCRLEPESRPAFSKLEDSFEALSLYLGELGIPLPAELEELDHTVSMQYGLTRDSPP
Experiment [9] has as its system Tyrosine-protein kinase ABL1 (Homo sapiens), P00519 [E255K]. The experiment in a line: Inhibition of ABL1 E255K mutant (unknown origin) assessed as remaining activity at 1 uM by Kinome scan method relative to control.
Experiment [10] addresses Fibroblast growth factor receptor 3 (Homo sapiens) (UniProt P22607). The experiment in a line: Inhibition of FGFR3 (unknown origin) assessed as remaining activity at 1 uM by Kinome scan method relative to control.
Experiment [11] addresses T1, Tyrosine-protein kinase JAK3 (Homo sapiens) (UniProt P52333).
T1 sequence (whole entry): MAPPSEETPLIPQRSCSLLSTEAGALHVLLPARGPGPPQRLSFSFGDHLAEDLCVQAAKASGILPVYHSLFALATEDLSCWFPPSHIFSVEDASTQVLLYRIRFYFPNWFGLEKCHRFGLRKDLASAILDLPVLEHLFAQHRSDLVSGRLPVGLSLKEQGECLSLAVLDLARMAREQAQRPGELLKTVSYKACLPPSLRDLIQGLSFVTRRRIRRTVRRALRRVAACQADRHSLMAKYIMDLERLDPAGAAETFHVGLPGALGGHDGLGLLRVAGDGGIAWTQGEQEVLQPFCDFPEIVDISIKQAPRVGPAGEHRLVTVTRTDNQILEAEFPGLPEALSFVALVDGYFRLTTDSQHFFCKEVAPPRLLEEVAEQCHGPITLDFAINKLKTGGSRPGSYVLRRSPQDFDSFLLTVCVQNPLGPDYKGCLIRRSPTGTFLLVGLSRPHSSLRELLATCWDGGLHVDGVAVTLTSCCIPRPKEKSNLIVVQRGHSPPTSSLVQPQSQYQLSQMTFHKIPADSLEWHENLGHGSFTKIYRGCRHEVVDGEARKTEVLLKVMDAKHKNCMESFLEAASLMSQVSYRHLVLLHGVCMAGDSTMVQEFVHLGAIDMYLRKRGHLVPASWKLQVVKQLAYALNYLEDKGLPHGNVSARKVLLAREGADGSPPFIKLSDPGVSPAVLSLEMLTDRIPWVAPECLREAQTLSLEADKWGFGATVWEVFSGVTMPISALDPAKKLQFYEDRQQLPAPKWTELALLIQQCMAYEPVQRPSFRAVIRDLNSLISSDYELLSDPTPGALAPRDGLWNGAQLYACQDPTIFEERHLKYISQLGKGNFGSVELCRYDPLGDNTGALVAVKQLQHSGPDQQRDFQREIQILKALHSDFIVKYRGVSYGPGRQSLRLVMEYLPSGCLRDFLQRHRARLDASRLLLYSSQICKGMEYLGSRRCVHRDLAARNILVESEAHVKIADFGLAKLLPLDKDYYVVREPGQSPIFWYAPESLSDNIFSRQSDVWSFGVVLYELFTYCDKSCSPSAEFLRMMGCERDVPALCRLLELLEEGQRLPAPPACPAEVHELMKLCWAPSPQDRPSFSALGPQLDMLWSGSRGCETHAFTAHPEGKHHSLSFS
The experiment is described as follows: Inhibition of JAK3 JH1 domain (unknown origin) assessed as remaining activity at 1 uM by Kinome scan method relative to control.

Experiment [12] concerns the target MAP kinase-activated protein kinase 2 (Homo sapiens) (UniProt P49137). The experiment in a line: Inhibition of MAPKAPK2 (unknown origin) assessed as remaining activity at 1 uM by Kinome scan method relative to control.
Experiment [13] relates to Phosphatidylinositol 4,5-bisphosphate 3-kinase catalytic subunit alpha isoform (Homo sapiens), P42336 [C420R]. The experiment in a line: Inhibition of PIK3CA C420R mutant (unknown origin) assessed as remaining activity at 1 uM by Kinome scan method relative to control.
The target in experiment [14] is Serine/threonine-protein kinase 33 (Homo sapiens) (UniProt Q9BYT3). The experiment is described as follows: Inhibition of STK33 (unknown origin) assessed as remaining activity at 1 uM by Kinome scan method relative to control.
Serine/threonine-protein kinase 33 (Homo sapiens), sequence (Q9BYT3 whole entry, looked up): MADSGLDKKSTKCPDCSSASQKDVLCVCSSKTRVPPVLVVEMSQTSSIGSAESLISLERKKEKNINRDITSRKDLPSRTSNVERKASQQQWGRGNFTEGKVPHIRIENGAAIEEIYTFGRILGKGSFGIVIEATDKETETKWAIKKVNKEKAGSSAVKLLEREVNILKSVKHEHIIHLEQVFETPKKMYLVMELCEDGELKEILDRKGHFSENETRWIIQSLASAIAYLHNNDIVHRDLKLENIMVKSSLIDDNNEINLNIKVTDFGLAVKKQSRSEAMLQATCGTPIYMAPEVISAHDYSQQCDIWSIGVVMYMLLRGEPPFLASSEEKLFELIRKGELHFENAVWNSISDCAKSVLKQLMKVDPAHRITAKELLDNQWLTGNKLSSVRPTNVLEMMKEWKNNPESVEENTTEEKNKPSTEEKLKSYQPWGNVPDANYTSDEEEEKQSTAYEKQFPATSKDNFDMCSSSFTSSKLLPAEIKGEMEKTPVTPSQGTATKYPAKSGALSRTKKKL
In experiment [15] the target is Serine/threonine-protein kinase SIK2 (Homo sapiens) (UniProt Q9H0K1). The experiment is described as follows: Inhibition of SIK2 (unknown origin) assessed as remaining activity at 1 uM by Kinome scan method relative to control.
Experiment [16] deals with Serine/threonine-protein kinase DCLK3 (Homo sapiens) (UniProt Q9C098). The experiment is described as follows: Inhibition of DCAMKL3 (unknown origin) assessed as remaining activity at 1 uM by Kinome scan method relative to control.
Serine/threonine-protein kinase DCLK3 (Homo sapiens), sequence (Q9C098 whole entry): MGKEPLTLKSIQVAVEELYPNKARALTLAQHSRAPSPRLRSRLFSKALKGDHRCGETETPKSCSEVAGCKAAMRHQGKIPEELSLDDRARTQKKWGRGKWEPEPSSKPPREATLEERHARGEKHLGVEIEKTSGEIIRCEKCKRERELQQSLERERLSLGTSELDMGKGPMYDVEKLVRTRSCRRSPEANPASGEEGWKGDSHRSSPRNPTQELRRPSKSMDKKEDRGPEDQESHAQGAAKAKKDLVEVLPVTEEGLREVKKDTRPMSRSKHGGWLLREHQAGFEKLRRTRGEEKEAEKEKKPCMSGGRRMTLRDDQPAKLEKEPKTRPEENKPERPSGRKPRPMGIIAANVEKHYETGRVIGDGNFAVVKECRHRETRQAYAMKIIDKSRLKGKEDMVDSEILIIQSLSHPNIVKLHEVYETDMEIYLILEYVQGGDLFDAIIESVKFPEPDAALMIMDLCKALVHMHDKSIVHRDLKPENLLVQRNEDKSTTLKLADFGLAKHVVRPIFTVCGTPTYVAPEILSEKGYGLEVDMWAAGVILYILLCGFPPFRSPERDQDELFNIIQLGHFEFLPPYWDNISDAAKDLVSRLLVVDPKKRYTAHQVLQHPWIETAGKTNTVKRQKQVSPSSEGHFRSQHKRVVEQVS
For experiment [17], the target named is Serine/threonine-protein kinase RIO2 (Homo sapiens) (UniProt Q9BVS4). The experiment in a line: Inhibition of RIOK2 (unknown origin) assessed as remaining activity at 1 uM by Kinome scan method relative to control.
In experiment [18] the target is Serine/threonine-protein kinase 25 (Homo sapiens) (UniProt O00506). The experiment in a line: Inhibition of YSK1 (unknown origin) assessed as remaining activity at 1 uM by Kinome scan method relative to control.

Serine/threonine-protein kinase 36 (Homo sapiens), sequence (Q9NRP7 whole entry): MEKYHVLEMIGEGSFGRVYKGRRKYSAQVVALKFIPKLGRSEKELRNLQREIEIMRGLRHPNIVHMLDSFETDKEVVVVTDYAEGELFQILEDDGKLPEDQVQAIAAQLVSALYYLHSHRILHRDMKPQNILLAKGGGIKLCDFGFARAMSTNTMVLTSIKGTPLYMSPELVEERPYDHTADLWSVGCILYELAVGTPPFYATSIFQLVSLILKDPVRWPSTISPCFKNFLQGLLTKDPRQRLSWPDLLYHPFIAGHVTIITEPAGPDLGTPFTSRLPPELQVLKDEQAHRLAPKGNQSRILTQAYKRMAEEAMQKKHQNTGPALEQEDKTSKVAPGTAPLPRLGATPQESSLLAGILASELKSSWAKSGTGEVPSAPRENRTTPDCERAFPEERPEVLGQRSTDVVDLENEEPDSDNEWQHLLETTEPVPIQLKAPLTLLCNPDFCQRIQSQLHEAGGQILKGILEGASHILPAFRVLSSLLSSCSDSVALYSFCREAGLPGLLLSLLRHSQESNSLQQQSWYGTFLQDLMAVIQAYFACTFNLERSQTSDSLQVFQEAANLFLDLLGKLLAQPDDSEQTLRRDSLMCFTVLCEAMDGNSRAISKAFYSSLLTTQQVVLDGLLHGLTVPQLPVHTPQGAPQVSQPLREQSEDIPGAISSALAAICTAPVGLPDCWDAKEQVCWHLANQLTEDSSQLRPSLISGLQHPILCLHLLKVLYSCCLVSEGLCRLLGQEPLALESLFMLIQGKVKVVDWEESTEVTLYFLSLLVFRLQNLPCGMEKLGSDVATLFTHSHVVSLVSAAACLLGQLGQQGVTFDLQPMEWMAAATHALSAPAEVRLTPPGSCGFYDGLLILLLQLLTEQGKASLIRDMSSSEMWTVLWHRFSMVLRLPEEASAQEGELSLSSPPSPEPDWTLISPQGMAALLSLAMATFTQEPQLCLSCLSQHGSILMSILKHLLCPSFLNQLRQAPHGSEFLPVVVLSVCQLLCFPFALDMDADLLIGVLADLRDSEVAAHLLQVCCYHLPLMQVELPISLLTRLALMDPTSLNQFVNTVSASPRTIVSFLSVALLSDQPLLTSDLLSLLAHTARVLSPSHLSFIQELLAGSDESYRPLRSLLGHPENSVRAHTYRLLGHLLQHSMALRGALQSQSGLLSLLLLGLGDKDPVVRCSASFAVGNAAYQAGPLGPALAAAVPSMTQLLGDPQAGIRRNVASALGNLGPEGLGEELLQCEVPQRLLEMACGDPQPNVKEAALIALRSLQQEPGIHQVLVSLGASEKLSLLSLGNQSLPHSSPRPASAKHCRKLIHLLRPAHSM
Tyrosine-protein kinase ABL1 (Homo sapiens), P00519 [E255K], sequence (P00519 whole entry E255K): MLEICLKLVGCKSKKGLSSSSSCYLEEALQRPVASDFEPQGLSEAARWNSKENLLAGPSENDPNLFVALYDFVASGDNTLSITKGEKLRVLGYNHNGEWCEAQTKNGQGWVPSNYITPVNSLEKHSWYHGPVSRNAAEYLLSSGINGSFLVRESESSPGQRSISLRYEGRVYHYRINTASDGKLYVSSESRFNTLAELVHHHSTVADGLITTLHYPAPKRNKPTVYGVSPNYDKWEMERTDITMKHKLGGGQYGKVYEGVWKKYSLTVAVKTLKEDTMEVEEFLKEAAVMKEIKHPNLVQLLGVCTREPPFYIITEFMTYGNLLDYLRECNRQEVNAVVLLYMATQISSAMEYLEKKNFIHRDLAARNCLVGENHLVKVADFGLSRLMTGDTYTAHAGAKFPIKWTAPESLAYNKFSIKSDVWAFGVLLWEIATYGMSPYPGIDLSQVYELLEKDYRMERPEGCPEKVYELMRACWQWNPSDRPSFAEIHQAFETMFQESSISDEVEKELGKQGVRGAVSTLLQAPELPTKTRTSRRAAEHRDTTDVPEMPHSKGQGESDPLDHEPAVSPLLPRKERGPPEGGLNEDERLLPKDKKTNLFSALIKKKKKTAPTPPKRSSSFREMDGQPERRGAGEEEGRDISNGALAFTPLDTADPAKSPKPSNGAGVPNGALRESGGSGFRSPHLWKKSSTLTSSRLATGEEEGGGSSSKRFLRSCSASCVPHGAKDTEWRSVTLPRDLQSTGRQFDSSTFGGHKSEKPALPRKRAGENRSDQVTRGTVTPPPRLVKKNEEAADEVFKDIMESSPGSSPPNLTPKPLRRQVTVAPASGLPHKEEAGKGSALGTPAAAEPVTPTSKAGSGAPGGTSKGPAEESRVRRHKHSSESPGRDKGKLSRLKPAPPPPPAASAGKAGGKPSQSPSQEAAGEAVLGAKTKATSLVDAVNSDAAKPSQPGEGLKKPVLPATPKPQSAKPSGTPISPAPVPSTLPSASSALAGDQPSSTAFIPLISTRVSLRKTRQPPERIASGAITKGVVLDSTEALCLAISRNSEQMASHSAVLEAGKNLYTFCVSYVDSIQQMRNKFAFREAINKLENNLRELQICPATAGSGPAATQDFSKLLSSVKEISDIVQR
Tyrosine-protein kinase ABL1 (Homo sapiens), sequence (P00519 whole entry): as the sequence (P00519 whole entry E255K) above, with K255E counted along it

For `Nc1ccccc1Nc1ccc2c(c1)CCc1ccccc1C2=O`, the Activity in experiment [1] was 97%; in experiment [2], 91%; in experiment [3] it was 64%; in experiment [4] it was 81%; in experiment [5], 62%; in experiment [6], 84%. The Activity is 83% in experiment [7]; 94% in [8]; 81% in experiment [9]; 77% in experiment [10]; 96% in experiment [11]; 96% in [12]. In addition, the Activity in [13] is 91%; in [14], 82%; in [15] it was 83%; in experiment [16], 91%; in experiment [17] it was 85%; in experiment [18] it was 92%.

For the molecule `O=C1c2ccc(Nc3ccc(F)cc3F)cc2CCc2ccc(OC[C@H](O)CO)cc21` [Skepinone-L], the Activity in experiment [1] was determined as 98%; in experiment [2] it was 96%; in experiment [3], 78%; in [4], 87%; in [5], 70%; in [6] it was 94%. The Activity was determined as 99% in experiment [7]; 100% in [8]; 96% in [9]; 95% in experiment [10]; 91% in [11]; 94% in experiment [12]. Besides, the Activity came out at 100% in [13]; 100% in experiment [14]; 93% in experiment [15]; 99% in [16]; 81% in experiment [17]; 100% in [18].
